Measured values from ChEMBL document CHEMBL4406808, “Synthesis and assessment of phenylacrylamide derivatives as potential anti-oxidant and anti-inflammatory agents” (Eur J Med Chem, 2019).
Active and inactive are the calls of the source. The rule behind the calls is not given here.

Legend:
[1] = test system: HBZY-1; assay: Cytotoxicity against rat HBZY-1 cells assessed as reduction in cell viability after 2 hrs by MTT assay; format: cell-based; settings: HBZY-1, 2 h
[2] = test system: HBZY-1; assay: Cytoprotection activity against H2O2-induced cell death in rat HBZY-1 cells assessed as cell viability at 6 uM preincubated with compound for 2 hrs followed by H2O2 addition and measured after 24 hrs by MTT assay (reference value: 62.1%); format: functional; settings: read-out: Activity
[3] = biological target: Kelch-like ECH-associated protein 1 (Rattus norvegicus) (UniProt P57790); assay: Binding affinity to Keap1 in rat HBZY-1 cells assessed as induction of Keap1/Nrf2 signaling by measuring increase in NQO-1 mRNA expression at 6 uM by RT-PCR analysis; format: cell-based
[4] = biological target: Kelch-like ECH-associated protein 1 (Rattus norvegicus) (UniProt P57790); assay: Binding affinity to Keap1 in rat HBZY-1 cells assessed as induction of Keap1/Nrf2 signaling by measuring increase in NQO-1 protein expression by Western blot analysis; format: cell-based
[5] = biological target: Kelch-like ECH-associated protein 1 (Rattus norvegicus) (UniProt P57790); assay: Binding affinity to Keap1 in rat HBZY-1 cells assessed as induction of Keap1/Nrf2 signaling by measuring increase in GCLM protein expression by Western blot analysis; format: cell-based
[6] = biological target: Kelch-like ECH-associated protein 1 (Rattus norvegicus) (UniProt P57790); assay: Binding affinity to Keap1 in rat HBZY-1 cells assessed as induction of Nrf2 nuclear translocation by measuring increase in ratio of nuclear to cytosolic Nrf2 level by Western blot analysis; format: cell-based
[7] = biological target: Kelch-like ECH-associated protein 1 (Rattus norvegicus) (UniProt P57790); assay: Binding affinity to Keap1 in rat HBZY-1 cells assessed as induction of Keap1/Nrf2 signaling by measuring increase in HO-1 mRNA expression at 6 uM by RT-PCR analysis; format: cell-based
[8] = biological target: Kelch-like ECH-associated protein 1 (Rattus norvegicus) (UniProt P57790); assay: Binding affinity to Keap1 in rat HBZY-1 cells assessed as induction of Keap1/Nrf2 signaling by measuring increase in GCLC protein expression by Western blot analysis; format: cell-based
[9] = biological target: Kelch-like ECH-associated protein 1 (Rattus norvegicus) (UniProt P57790); assay: Binding affinity to Keap1 in rat HBZY-1 cells assessed as induction of Keap1/Nrf2 signaling by measuring increase in GCLM mRNA expression at 6 uM by RT-PCR analysis; format: cell-based
[10] = biological target: Kelch-like ECH-associated protein 1 (Rattus norvegicus) (UniProt P57790); assay: Binding affinity to Keap1 in rat HBZY-1 cells assessed as induction of Keap1/Nrf2 signaling by measuring increase in GCLC mRNA expression at 6 uM by RT-PCR analysis; format: cell-based
[11] = biological target: Kelch-like ECH-associated protein 1 (Rattus norvegicus) (UniProt P57790); assay: Binding affinity to Keap1 in rat HBZY-1 cells assessed as induction of Keap1/Nrf2 signaling by measuring increase in HO-1 protein expression by Western blot analysis; format: cell-based
[12] = biological target: T1, Nuclear factor erythroid 2-related factor 2 (Homo sapiens) (UniProt Q16236); assay: Activation of Nrf2 (unknown origin) expressed in HEK293 cells co-transfected with ARE luciferase reporter plasmid at 20 uM after 16 hrs by dual luciferase reporter gene assay; format: cell-based
T1 sequence (whole entry): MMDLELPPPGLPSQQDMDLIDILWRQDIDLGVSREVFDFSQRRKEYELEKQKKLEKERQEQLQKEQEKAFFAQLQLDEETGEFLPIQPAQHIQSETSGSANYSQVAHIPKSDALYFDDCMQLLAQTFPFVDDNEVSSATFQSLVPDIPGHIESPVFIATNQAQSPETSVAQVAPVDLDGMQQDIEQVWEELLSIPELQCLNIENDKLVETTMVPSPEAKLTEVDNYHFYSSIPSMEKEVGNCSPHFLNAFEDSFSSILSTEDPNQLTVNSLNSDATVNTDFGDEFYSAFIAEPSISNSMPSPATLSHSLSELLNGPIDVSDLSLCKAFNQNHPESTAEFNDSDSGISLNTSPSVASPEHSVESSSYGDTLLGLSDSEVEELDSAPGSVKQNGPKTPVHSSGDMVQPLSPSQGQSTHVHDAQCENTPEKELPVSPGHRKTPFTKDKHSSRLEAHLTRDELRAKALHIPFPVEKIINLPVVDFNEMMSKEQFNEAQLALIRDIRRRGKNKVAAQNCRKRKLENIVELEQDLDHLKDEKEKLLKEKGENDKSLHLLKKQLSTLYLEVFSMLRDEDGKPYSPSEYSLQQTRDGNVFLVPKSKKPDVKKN

[13] = test system: HBZY-1; assay: Antiinflammatory activity in rat HBZY-1 cells assessed as reduction in nitric oxide production at 6 uM preincubated for 30 mins followed by LPS stimulation and measured after 24 hrs in presence of Nrf2 inhibitor TRG by Griess assay; format: functional, cell-based
[14] = biological target: Kelch-like ECH-associated protein 1 (Rattus norvegicus) (UniProt P57790); assay: (§1) Binding affinity to Keap1 in rat HBZY-1 cells transfected with pNF-kB-Luc/pRL-CMV assessed as induction of Keap1/Nrf2 signaling by measuring reduction in LPS-induced NFkappaB activation at 6 uM preincubated for 30 mins followed by LPS stimulation and measured after 12 hrs in presence of HO-1 inhibitor ZnPP by luciferase reporter gene assay; format: cell-based
[15] = test system: HBZY-1; assay: Antiinflammatory activity in rat HBZY-1 cells assessed as reduction in NO production at 6 uM preincubated for 30 mins followed by LPS stimulation and measured after 24 hrs in presence of HO-1 inhibitor ZnPP by Griess assay; format: functional, cell-based
[16] = test system: HBZY-1; assay: Antioxidant activity in rat HBZY-1 cells assessed as reduction in H2O2-induced intracellular ROS accumulation incubated with compound prior to H2O2 addition by DCFH-DA based flow cytometry; format: functional, cell-based
[17] = biological target: Kelch-like ECH-associated protein 1 (Rattus norvegicus) (UniProt P57790); assay: Binding affinity to Keap1 in rat HBZY-1 cells assessed as induction of Keap1/Nrf2 signaling by measuring increase in GCLM protein expression at 6 uM by Western blot analysis; format: cell-based; settings: TDE = time-dependent effect
[18] = test system: HBZY-1; assay: Cytoprotection against H2O2-induced cell death in rat HBZY-1 cells assessed as increase in cell viability at 6 uM preincubated for 2 hrs followed by H2O2 addition and measured after 24 hrs in presence of GCL inhibitor BSO by MTT assay; format: functional, cell-based
[19] = biological target: Kelch-like ECH-associated protein 1 (Rattus norvegicus) (UniProt P57790); assay: Binding affinity to Keap1 in rat HBZY-1 cells assessed as disruption of Keap1/Nrf2 complex by measuring reduction in Keap1 protein expression by Western blot analysis; format: cell-based
[20] = biological target: Kelch-like ECH-associated protein 1 (Rattus norvegicus) (UniProt P57790); assay: Binding affinity to Keap1 in rat HBZY-1 cells transfected with pNF-kB-Luc/pRL-CMV assessed as induction of Keap1/Nrf2 signaling by measuring reduction in LPS-induced NFkappaB activation preincubated for 30 mins followed by LPS stimulation and measured after 12 hrs by luciferase reporter gene assay; format: cell-based
[21] = biological target: Kelch-like ECH-associated protein 1 (Rattus norvegicus) (UniProt P57790); assay: Binding affinity to Keap1 in rat HBZY-1 cells assessed as induction of Keap1/Nrf2 signaling by measuring increase in NQO-1 protein expression at 6 uM by Western blot analysis; format: cell-based; settings: TDE = time-dependent effect
[22] = biological target: Kelch-like ECH-associated protein 1 (Rattus norvegicus) (UniProt P57790); assay: Binding affinity to Keap1 in rat HBZY-1 cells assessed as disruption of Keap1/Nrf2 complex by measuring Keap1 expression in presence of DTT by Western blot analysis; format: cell-based
[23] = biological target: Kelch-like ECH-associated protein 1 (Rattus norvegicus) (UniProt P57790); assay: Binding affinity to Keap1 in rat HBZY-1 cells assessed as induction of Keap1/Nrf2 signaling by measuring increase in GCLC protein expression at 6 uM by Western blot analysis; format: cell-based; settings: TDE = time-dependent effect
[24] = biological target: Kelch-like ECH-associated protein 1 (Rattus norvegicus) (UniProt P57790); assay: Binding affinity to Keap1 in rat HBZY-1 cells assessed as disruption of Keap1/Nrf2 complex by measuring increase in Nrf2 expression by Western blot analysis; format: cell-based
[25] = biological target: Kelch-like ECH-associated protein 1 (Rattus norvegicus) (UniProt P57790); assay: as §1, with “Nrf2” for “HO-1”, “TRG” for “ZnPP”; format: cell-based
[26] = biological target: Kelch-like ECH-associated protein 1 (Rattus norvegicus) (UniProt P57790); assay: Binding affinity to Keap1 in rat HBZY-1 cells assessed as disruption of Keap1/Nrf2 complex by measuring Nrf2 expression in presence of DTT by Western blot analysis; format: cell-based
[27] = test system: HBZY-1; assay: Antiinflammatory activity in rat HBZY-1 cells assessed as reduction in LPS-induced NO production preincubated for 30 mins followed by LPS stimulation and measured after 24 hrs by Griess assay; format: functional, cell-based
[28] = biological target: T1, Nuclear factor erythroid 2-related factor 2 (Homo sapiens); assay: Activation of Nrf2 (unknown origin) expressed in HEK293 cells co-transfected with ARE luciferase reporter plasmid after 16 hrs by dual luciferase reporter gene assay; format: cell-based
[29] = biological target: Kelch-like ECH-associated protein 1 (Rattus norvegicus) (UniProt P57790); assay: Binding affinity to Keap1 in rat HBZY-1 cells assessed as induction of Keap1/Nrf2 signaling by measuring induction of Nrf2 nuclear translocation by measuring increase in ratio of nuclear to cytosolic Nrf2 level at 6 uM by Western blot analysis; format: cell-based; settings: TDE = time-dependent effect
[30] = test system: HBZY-1; assay: Cytoprotection against H2O2-induced cell death in rat HBZY-1 cells assessed as increase in cell viability at 6 uM preincubated for 2 hrs followed by H2O2 addition and measured after 24 hrs in presence of HO-1 inhibitor ZnPP by MTT assay; format: functional, cell-based
[31] = test system: HBZY-1; assay: Cytoprotection activity against H2O2-induced cell death in rat HBZY-1 cells assessed as increase in cell viability preincubated with compound for 2 hrs followed by H2O2 addition and measured after 24 hrs by MTT assay; format: functional, cell-based
[32] = test system: HBZY-1; assay: Cytoprotection against H2O2-induced cell death in rat HBZY-1 cells assessed as increase in cell viability at 6 uM preincubated for 2 hrs followed by H2O2 addition and measured after 24 hrs in presence of Nrf2 inhibitor TRG by MTT assay; format: functional, cell-based
[33] = biological target: Kelch-like ECH-associated protein 1 (Rattus norvegicus) (UniProt P57790); assay: Binding affinity to Keap1 in rat HBZY-1 cells assessed as induction of Keap1/Nrf2 signaling by measuring increase in HO-1 protein expression at 6 uM by Western blot analysis; format: cell-based; settings: TDE = time-dependent effect

Sequence of Kelch-like ECH-associated protein 1 (Rattus norvegicus) (P57790 whole entry): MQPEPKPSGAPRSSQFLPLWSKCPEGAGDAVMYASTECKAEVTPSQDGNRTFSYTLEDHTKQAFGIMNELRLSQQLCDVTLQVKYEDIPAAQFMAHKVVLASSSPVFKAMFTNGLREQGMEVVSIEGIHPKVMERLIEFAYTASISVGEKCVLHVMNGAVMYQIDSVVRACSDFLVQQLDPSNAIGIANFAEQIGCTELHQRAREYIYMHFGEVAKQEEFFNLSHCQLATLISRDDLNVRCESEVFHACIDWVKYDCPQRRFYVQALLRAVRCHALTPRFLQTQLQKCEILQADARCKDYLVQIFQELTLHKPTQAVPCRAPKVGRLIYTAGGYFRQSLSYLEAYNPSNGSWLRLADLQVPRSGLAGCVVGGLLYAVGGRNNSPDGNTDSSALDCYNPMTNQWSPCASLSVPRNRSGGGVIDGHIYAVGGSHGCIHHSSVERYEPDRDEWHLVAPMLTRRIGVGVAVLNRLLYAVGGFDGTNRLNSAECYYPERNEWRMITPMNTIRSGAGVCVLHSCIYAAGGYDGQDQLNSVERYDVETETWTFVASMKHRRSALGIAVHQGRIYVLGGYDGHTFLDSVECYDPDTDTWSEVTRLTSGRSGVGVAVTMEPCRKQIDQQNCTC

Structure (SMILES): COc1ccc(CCNC(=O)/C(C#N)=C/c2ccccc2C(F)(F)F)cc1OC
- IC50 [1]: > 200 µM
- viability at 6 µM [2]: 65.6 to 96.4%

Structure (SMILES): COc1ccccc1C(=O)/C=C/c1ccccc1C(F)(F)F
- viability at 6 µM [2]: 80.3%

Structure (SMILES): Oc1ccc(/C=C/c2cc(O)cc(O)c2)cc1 [RESVERATROL]
- Activity [3]: Active
- Activity [4]: Active
- Activity [5]: Active
- Activity [6]: Active
- Activity [7]: Active
- Activity [8]: Active
- Activity [9]: Active
- Activity [10]: Active
- viability at 6 µM [2]: 76.8%
- Activity [11]: Active

Structure (SMILES): COc1ccc(CCNC(=O)/C=C/c2ccccc2C(F)(F)F)cc1OC
- IC50 [1]: > 200 µM
- viability at 6 µM [2]: 65.6 to 96.4%

Structure (SMILES): COc1cc(NC(=O)/C=C/c2ccccc2C(F)(F)F)cc(OC)c1OC
- IC50 [1]: > 200 µM
- viability at 6 µM [2]: 65.6 to 96.4%

Structure (SMILES): COc1ccccc1NC(=O)/C(C#N)=C/c1cccc([N+](=O)[O-])c1
- IC50 [1]: > 200 µM
- viability at 6 µM [2]: 65.6 to 96.4%

Structure (SMILES): COc1ccc(CNC(=O)/C=C/c2ccccc2C(F)(F)F)cc1
- IC50 [1]: > 200 µM
- viability at 6 µM [2]: 65.6 to 96.4%

Structure (SMILES): COc1ccccc1NC(=O)/C(C#N)=C/c1cccc(C)c1
- IC50 [1]: > 200 µM
- viability at 6 µM [2]: 65.6 to 96.4%

Structure (SMILES): CC(C)(C)c1cc(O)ccc1O
- Activity [12]: Active

Structure (SMILES): C[S+]([O-])CCCCN=C=S (configuration not stated) [SULFORAPHANE]
- viability at 6 µM [2]: 80%

Structure (SMILES): COc1ccc(NC(=O)/C=C/c2ccccc2C(F)(F)F)cc1
- IC50 [1]: > 200 µM
- viability at 6 µM [2]: 65.6 to 96.4%

Structure (SMILES): COc1ccc(NC(=O)/C(C#N)=C/c2ccccc2C(F)(F)F)cc1OC
- IC50 [1]: > 200 µM
- viability at 6 µM [2]: 78.2%

Structure (SMILES): COc1ccccc1NC(=O)/C(C#N)=C/c1ccccc1C(F)(F)F
- Activity [13]: inactive
- Activity [14]: inactive
- IC50 [1]: > 200 µM
- Activity [4]: Dose-dependent effect
- Activity [5]: Dose-dependent effect
- Activity [15]: inactive
- Activity [16]: Dose-dependent effect
- Activity [17]: Tde
- Activity [6]: Dose-dependent effect
- Activity [18]: inactive
- Activity [19]: Active
- Activity [20]: Dose-dependent effect
- Activity [21]: Tde
- Activity [8]: Dose-dependent effect
- Activity [22]: inactive
- Activity [23]: Tde
- Activity [24]: Active
- Activity [25]: inactive
- Activity [26]: inactive
- Activity [27]: Dose-dependent effect
- viability at 6 µM [2]: 65.6 to 96.4%
- Activity [28]: Dose-dependent effect
- Activity [29]: Tde
- Activity [30]: inactive
- Activity [31]: Dose-dependent effect
- Activity [11]: Dose-dependent effect
- Activity [32]: inactive
- Activity [33]: Tde
